Assay results reported in patent US20260097047A1, “Small molecule inhibitors of the ribosome biogenesis factor NVL2” (Board of Regents, The University of Texas System, priority 2023, published 2026).

What follows are compounds tested on HCT116 cells (assay: Cell viability assay (CellTiter-Glo, 72 hours) in HCT116 human colorectal cancer cells). Conditions: Homo sapiens, HCT-116; Table 1; HCT116, 72 hours; read-out: Activity.
Format: cell-based
Procedure, shortened: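 2,000 cells/well adhered overnight, then compound added by digital dispenser with DMSO normalized to 0.5%. Viability read after 72 h at 37 °C by ATP-based CellTiter-Glo luminescence. IC50 from ten-point curves baseline-corrected to vehicle, five-parameter asymmetric least-squares fit.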

Row | SMILES | IC50
1 | C#CCOCCN1C(=O)c2ccccc2Sc2cc(NC(=O)N3CCC3)ccc21 [N-(11-Oxo-10-(2-(prop-2-yn-1-yloxy)ethyl)-10,11-dihydrodibenzo[b,f][1,4]thiazepin-7-yl) azetidine-1-carboxamide] | < 500 nM

Same assay, conditions: Homo sapiens, HCT-116; Table 5; HCT116, 72 hours; read-out: Activity

Row | SMILES | IC50
2 | CCC/C=C/CN1C(=O)c2ccccc2Sc2cc(Nc3ncccc3C#N)ccc21 [(E)-2-((10-(Hex-2-en-1-yl)-11-oxo-10,11-dihydrodibenzo[b,f][1,4]thiazepin-7-yl)amino) nicotinonitrile] | < 500 nM
3 | CC#CCN1C(=O)c2ccccc2Sc2cc(Nc3nccc(-c4cccnc4)n3)ccc21 [10-(But-2-yn-1-yl)-7-((4-(pyridin-3-yl)pyrimidin-2-yl)amino)dibenzo[b,f][1,4]thiazepin-11 (10H)-one] | < 500 nM
4 | CC#CCN1C(=O)c2ccccc2Sc2cc(Nc3ccncc3C#N)ccc21 [4-((10-(But-2-yn-1-yl)-11-oxo-10,11-dihydrodibenzo[b,f][1,4]thiazepin-7-yl)amino) nicotinonitrile] | < 500 nM
5 | CC#CCN1C(=O)c2ccccc2Sc2cc(Nc3cccnc3)ccc21 [10-(But-2-yn-1-yl)-7-(pyridin-3-ylamino)dibenzo[b,f][1,4]thiazepin-11 (10H)-one] | < 500 nM
6 | CCC/C=C/CN1C(=O)c2ccccc2Sc2cc(Nc3cc(OC)ccn3)ccc21 [(E)-10-(Hex-2-en-1-yl)-7-((4-methoxypyridin-2-yl)amino)dibenzo[b,f][1,4]thiazepin-11 (10H)-one] | < 500 nM
7 | CC#CCN1C(=O)c2ccccc2Sc2cc(Nc3nc(C)cnc3C)ccc21 [10-(But-2-yn-1-yl)-7-((3,6-dimethylpyrazin-2-yl)amino)dibenzo[b,f][1,4]thiazepin-11 (10H)-one] | < 500 nM
8 | CC#CCN1C(=O)c2ccccc2Sc2cc(Nc3cccnn3)ccc21 [10-(But-2-yn-1-yl)-7-(pyridazin-3-ylamino)dibenzo[b,f][1,4]thiazepin-11 (10H)-one] | < 500 nM
9 | CCC/C=C/CN1C(=O)c2ccccc2Sc2cc(Nc3nccc4ccccc34)ccc21 [(E)-10-(Hex-2-en-1-yl)-7-(isoquinolin-1-ylamino)dibenzo[b,f][1,4]thiazepin-11 (10H)-one] | < 500 nM
10 | CC#CCN1C(=O)c2ccc(F)cc2Sc2cc(Nc3nccnc3C)ccc21 [10-(But-2-yn-1-yl)-3-fluoro-7-((3-methylpyrazin-2-yl)amino)dibenzo[b,f][1,4]thiazepin-11 (10H)-one] | < 500 nM
11 | CC#CCN1C(=O)c2ccccc2Sc2cc(Nc3ncc(C)nc3C)ccc21 [10-(But-2-yn-1-yl)-7-((3,5-dimethylpyrazin-2-yl)amino)dibenzo[b,f][1,4]thiazepin-11 (10H)-one] | < 500 nM

Same assay, conditions: Homo sapiens, HCT-116; Table 6; HCT116, 72 hours; read-out: Activity

Row | SMILES | IC50
12 | CC#CCN1C(=O)c2ccccc2Sc2cc(NC3CCCC3)ccc21 [Table 6: —CH2CCMe; cPent; CH/CH; S, 10-(But-2-yn-1-yl)-7-(cyclopentylamino)dibenzo[b,f][1,4]thiazepin-11 (10H)-one] | < 500 nM
13 | CC#CCN1C(=O)c2ccccc2Sc2cc(NC3CCOC3)cnc21 (centres unmarked) [11-(But-2-yn-1-yl)-3-((tetrahydrofuran-3-yl)amino)benzo[f]pyrido[3,2-b][1,4]thiazepin-10(11H)-one] | < 500 nM

Same assay, conditions: Homo sapiens, HCT-116; read-out: IC50s (cellular activity of MM017 derivatives)

Row | SMILES | IC50
14 | COCCN1C(=O)c2ccccc2Sc2cc(NC(=O)c3ccc(OC(F)(F)F)cc3)ccc21 [compound 4] | 2100 nM

Same assay, conditions: Table 1; HCT116, 72 hours; read-out: Activity

Row | SMILES | IC50
15 | CC#CCN1C(=O)c2ccccc2Sc2cc(NC(=O)N3CCCC3)cnc21 | < 500 nM

Same assay, conditions: Table 2; HCT116, 72 hours; read-out: Activity

Row | SMILES | IC50
16 | CC#CCN1C(=O)c2ccccc2Sc2cc(NC(=S)N3CCCC3)cnc21 | < 500 nM
17 | CC#CCN1C(=O)c2ccccc2Sc2cc(NC(=S)N3CCC3)cnc21 [Table 2: —CH2CCMe; azetidin-1-yl; CH; N] | < 500 nM
18 | CC#CCN1C(=O)c2ccc(Cl)cc2Sc2cc(NC(=S)N3CCC3)ccc21 | < 500 nM

Same assay, conditions: Table 3; HCT116, 72 hours; read-out: Activity

Row | SMILES | IC50
19 | CC#CCN1C(=O)c2ccccc2Sc2cc(NC(=O)NC34CC(OC)(C3)C4)ccc21 | < 500 nM
20 | CC#CCN1C(=O)c2ccccc2Sc2cc(NC(=O)NC34CC(OC)(C3)C4)cnc21 | < 500 nM

Same assay, conditions: Table 4; HCT116, 72 hours; read-out: Activity

Row | SMILES | IC50
21 | CC#CCN1C(=O)c2ccccc2Sc2cc(NC(=S)Nc3ccc(OCF)cc3)cnc21 [Table 4: —CH2CCMe; 4-FH2COPh; N] | < 500 nM
22 | CC#CCN1C(=O)c2ccccc2Sc2cc(NC(=S)N[C@H]3C[C@H](O)C3)cnc21 [Table 4: —CH2CCMe; trans-3-OH-cBu; N] | < 500 nM

Same assay, conditions: Table 5; HCT116, 72 hours; read-out: Activity

Row | SMILES | IC50
23 | O=C1c2ccccc2Sc2cc(Nc3cccnn3)cnc2N1CC#CCl | < 500 nM

Same assay, conditions: Table 6; HCT116, 72 hours; read-out: Activity

Row | SMILES | IC50
24 | CC#CCN1C(=O)c2ccccc2Sc2cc(NC3CC(CO)C3)cnc21 (centres unmarked) [Table 6: —CH2CCMe; 3-HOCH2-cBu; CH/N; S] | < 500 nM
25 | COCC1CC(Nc2ccc3c(c2)Sc2ccccc2C(=O)N3CC#CCl)C1 (centres unmarked) | < 500 nM
26 | CC#CCN1C(=O)c2ccccc2Sc2cc(NC34CC(C3)C4)cnc21 | < 500 nM
27 | CC#CCN1C(=O)c2ccccc2Cc2cc(NC3CC4(CC(O)C4)C3)ccc21 (centres unmarked) | < 500 nM
28 | C#CCN1C(=O)c2ccccc2Sc2cc(NC3CC(O)C3)cnc21 (centres unmarked) [Table 6: —CH2CCH; 3-HOcBu; CH/N; S] | < 500 nM
29 | COCC1CC(Nc2cnc3c(c2)Sc2ccccc2C(=O)N3CC#CCl)C1 (centres unmarked) [Table 6: —CH2CCCl; 3-MeOCH2-cBu; CH/N; S] | < 500 nM

Same assay, conditions: Table 7; cell viability assay, CellTiter-Glo, 72 hours; scaffold drawing 42 with R^2, R^3, X/Y, Z; read-out: Activity

Row | SMILES | IC50
30 | COCCN1C(=O)c2ccccc2Sc2cc(NC(=O)c3cscn3)ccc21 [—(CH2)2OMe; thiazol-4-yl; CH/CH; S] | 1000 to 5000 nM
31 | COCCN1C(=O)c2ccccc2Sc2cc(NC(=O)c3ccc(C)cc3)ccc21 [—(CH2)2OMe; 4-MePh; CH/CH; S] | 1000 to 5000 nM
32 | COCCN1C(=O)c2ccccc2Sc2cc(NC(=O)c3ccc(Cl)c(Cl)c3)ccc21 [—(CH2)2OMe; 3,4-Cl2Ph; CH/CH; S] | 1000 to 5000 nM
33 | C#CCOCCN1C(=O)c2ccccc2Sc2cc(NC(=O)c3ccc4scnc4c3)ccc21 | < 500 nM
34 | COCCN1C(=O)c2ccccc2Sc2cc(NC(=O)C3CC34CC4)ccc21 (centres unmarked) [—(CH2)2OMe; spiro[2.2]pentanyl; CH/CH; S] | 1000 to 5000 nM

Same assay, conditions: Table 8; analogs of scaffold drawing 43 defined by R^2, R^3, X/Y, W; read-out: Activity (IC50 class, cell viability assay)

Row | SMILES | IC50
35 | COCC=CC(=O)Nc1cnc2c(c1)Sc1ccccc1C(=O)N2CC#CC(F)(F)F [—CH2CCCF3; CH═CHCH2OMe; CH/CH; N] | < 500 nM
36 | CC#CCN1C(=O)c2cc(F)ccc2Sc2cc(NC(=O)[C@H]3C[C@@H](OC)C3)cnc21 [—CH2CCMe; cis-3-MeOcBu; CH/CF; N] | < 500 nM
37 | CC#CCN1C(=O)c2ccc(F)cc2Sc2cc(NC(=O)C3CC4(CC(=NO)C4)C3)cnc21 (centres unmarked) | < 500 nM
38 | CC#CCN1C(=O)c2ccccc2Sc2cc(NC(=O)C3CCN(C)C3=O)ccc21 (centres unmarked) | 500 to 1000 nM
39 | CC#CCN1C(=O)c2cc(F)ccc2Sc2cc(NC(=O)[C@H]3C[C@H](O)C3)ccc21 [—CH2CCMe; trans-3-OH-cBu; CH/CF; CH] | < 500 nM
40 | CC#CCN1C(=O)c2ccccc2Sc2cc(NC(=O)C3CCOC3)ccc21 (centres unmarked) | < 500 nM
41 | CC#CCN1C(=O)c2cc(F)ccc2Sc2cc(NC(=O)[C@H]3C[C@H](OC)C3)cnc21 [—CH2CCMe; trans-3-MeOcBu; CH/CF; N] | < 500 nM
42 | CC#CCN1C(=O)c2ccccc2Sc2cc(NC(=O)C=CCOC)ccc21 [—CH2CCMe; CH═CHCH2OMe; CH/CH; CH] | < 500 nM
43 | CC#CCN1C(=O)c2ccc(F)cc2Sc2cc(NC(=O)[C@@H]3C[C@H]3COC)cnc21 (relative stereo) [—CH2CCMe; trans-2-MeOCH2-cPr; CF/CH; N] | < 500 nM
44 | CC#CCN1C(=O)c2ccc(Cl)cc2Sc2cc(NC(=O)CCCO)ccc21 [—CH2CCMe; (CH2)3OH; CCl/CH; CH] | < 500 nM
45 | O=C(Nc1ccc2c(c1)Sc1ccc(F)cc1C(=O)N2CC#CCl)C1CC2(CC(=NO)C2)C1 (centres unmarked) | < 500 nM
46 | CC#CCN1C(=O)c2ccc(F)cc2Sc2cc(NC(=O)c3ccc(OC)cc3)ccc21 [—CH2CCMe; 4-MeOPh; CF/CH; CH] | < 500 nM
47 | COC(=O)[C@@H]1C[C@H]1C(=O)Nc1cnc2c(c1)Sc1ccccc1C(=O)N2CC#CC1CC1 (relative stereo) [—CH2CC^cPr; trans-2-MeO2C-cPr; CH/CH; N] | < 500 nM
48 | CC#CCN1C(=O)c2ccc(Cl)cc2Sc2cc(NC(=O)[C@H]3C[C@H](O)C3)cnc21 [—CH2CCMe; trans-3-OH-cBu; CCl/CH; N] | < 500 nM
49 | CC#CCN1C(=O)c2ccccc2Sc2cc(NC(=O)[C@H]3C[C@@H](O)C3)ccc21 [—CH2CCMe; cis-3-OH-cBu; CH/CH; CH] | < 500 nM
50 | CC#CCN1C(=O)c2ccccc2Sc2cc(NC(=O)C3CNC(=O)C3)ccc21 (centres unmarked) [—CH2CCMe; 2-oxo-pyrrolidin-4-yl; CH/CH; CH] | 1000 to 5000 nM
51 | C#CCN1C(=O)c2ccc(Cl)cc2Sc2cc(NC(=O)C3CC4(CC(=NO)C4)C3)cnc21 (centres unmarked) | < 500 nM
52 | CC#CCN1C(=O)c2ccccc2Sc2cc(NC(=O)C3CC4(CC(=NO)C4)C3)cnc21 (centres unmarked) | < 500 nM
53 | CC#CCN1C(=O)c2ccc(Cl)cc2Sc2cc(NC(=O)CC3COC3)cnc21 [—CH2CCMe; (oxetan-3-yl)CH2; CCl/CH; N] | < 500 nM
54 | CC#CCN1C(=O)c2ccc(Cl)cc2Sc2cc(NC(=O)C3CC4(CC(=NO)C4)C3)ccc21 (centres unmarked) | < 500 nM

Same assay, conditions: Table 9; HCT116, 72 hours; read-out: Activity

Row | SMILES | IC50
55 | COc1ccc(C(=O)Nc2ccc3c(c2)C(C)(O)c2ccccc2C(=O)N3CC#CCl)cn1 (centres unmarked) | < 500 nM
56 | CC1c2ccccc2C(=O)N(CC#CC2CC2)c2ccc(NC(=O)C3CC4(COC4)C3)cc21 (centres unmarked) | < 500 nM
57 | CC#CCN1C(=O)c2ccccc2C(C)c2cc(NC(=O)CCCOC)ccc21 (centres unmarked) [Table 9: —CH2CCMe; (CH2)3OMe; CHMe] | < 500 nM
58 | COC1CC(C(=O)Nc2ccc3c(c2)C(C#N)c2ccccc2C(=O)N3CC#CC2CC2)C1 (stereo not drawn) [Table 9: —CH2CC°Pr; trans-3-MeOcBu; CHCN] | < 500 nM

Same assay, conditions: cell viability assay; Table 10 analogs of scaffold drawing 45 defined by R2, R3, X/Y, W; read-out: Activity

Row | SMILES | IC50
59 | CC#CCN1C(=O)c2ccc(Cl)cc2Sc2cc(NC(=S)C34CC(OC)(C3)C4)ccc21 | < 500 nM
